US11203574B2 (BioCryst Pharmaceuticals, Inc., priority 2014, dated 2021)
Where two headings read alike, the source gives them in different places.

Molecular target: human plasma kallikrein (Homo sapiens (Human), UniProt P03952)
Assay: Plasma kallikrein activity assay (chromogenic substrate S2302)
Assay type: biochemical
Conditions: 2 nM kallikrein, 80 μM S2302, 30° C., pH 7.8, Ki by Cheng-Prusoff equation, values given as ranges

Chain of human plasma kallikrein (P03952 whole entry, looked up): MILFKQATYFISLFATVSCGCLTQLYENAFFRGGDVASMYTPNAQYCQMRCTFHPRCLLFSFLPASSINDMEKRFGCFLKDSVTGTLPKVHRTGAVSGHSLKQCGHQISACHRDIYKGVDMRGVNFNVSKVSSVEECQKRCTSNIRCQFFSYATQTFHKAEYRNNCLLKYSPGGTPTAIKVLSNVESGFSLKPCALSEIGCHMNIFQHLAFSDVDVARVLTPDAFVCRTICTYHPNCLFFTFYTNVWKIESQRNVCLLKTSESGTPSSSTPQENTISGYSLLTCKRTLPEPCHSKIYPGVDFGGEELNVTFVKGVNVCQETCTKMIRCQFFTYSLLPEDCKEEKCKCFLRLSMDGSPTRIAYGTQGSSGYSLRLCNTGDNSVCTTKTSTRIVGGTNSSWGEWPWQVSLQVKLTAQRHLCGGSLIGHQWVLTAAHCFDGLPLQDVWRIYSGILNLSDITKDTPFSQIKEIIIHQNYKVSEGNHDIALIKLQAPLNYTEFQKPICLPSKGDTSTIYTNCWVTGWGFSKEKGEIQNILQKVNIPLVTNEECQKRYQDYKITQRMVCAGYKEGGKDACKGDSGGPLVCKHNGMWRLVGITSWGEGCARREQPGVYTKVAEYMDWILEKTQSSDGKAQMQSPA
Chain of human plasma kallikrein (P03952 whole entry partner, looked up): as the sequence (P03952 whole entry, looked up) above

## Cc1ccc(C(NCC2CC2)c2cccc(NC(=O)c3cc(C(F)(F)F)nn3-c3cccc(CN)c3)c2)cc1 (centres unmarked) [122g, 1-(3-(aminomethyl)phenyl)-N-(3-(((cyclopropylmethyl)amino)(p-tolyl)methyl)phenyl)-3-(trifluoromethyl)-1H-pyrazole-5-carboxamide]
read-out: Ki
  Ki: 0.1 to 50 nM

## NCc1cccc(-n2nc(C(F)(F)F)cc2C(=O)Nc2cccc(C(NCC3CC3)c3cccc(OC(F)(F)F)c3)c2)c1 (centres unmarked) [124f, 1-(3-(aminomethyl)phenyl)-N-(3-((cyclopropylmethylamino)(3-(trifluoromethoxy)phenyl)methyl)phenyl)-3-(trifluoromethyl)-1H-pyrazole-5-carboxamide]
read-out: Ki
  Ki: 0.1 to 50 nM

## NCc1cccc(-n2nc(C(F)(F)F)cc2C(=O)Nc2cccc(C(NCC3CC3)c3cc4ccccc4c4ccccc34)c2)c1 (centres unmarked) [125g, 1-(3-(Aminomethyl)phenyl)-N-(3-((cyclopropylmethylamino)(phenanthren-9-yl)methyl)phenyl)-3-(trifluoromethyl)-1H-pyrazole-5-carboxamide]
Ki
  Ki: 0.1 to 50 nM

## CN(C)c1ccc(C(NCC2CC2)c2cccc(NC(=O)c3cc(C(F)(F)F)nn3-c3cccc(CN)c3)c2)c2ccccc12 (centres unmarked) [126g, 2-(3-Aminomethyl-phenyl)-5-trifluoromethyl-2H-pyrazole-3-carboxylic acid {3-[(cyclopropylmethyl-amino)-(4-dimethylamino-naphthalen-1-yl)-methyl]-phenyl}-amide]
read-out: Ki
  Ki: 0.1 to 50 nM

## CCCOc1ccc(C(NCC2CC2)c2cccc(NC(=O)c3cc(C(F)(F)F)nn3-c3cccc(CN)c3)c2)cc1 (centres unmarked) [127f, 1-(3-(Aminomethyl)phenyl)-N-(3-((cyclopropylmethylamino)(4-propoxyphenyl)methyl)phenyl)-3-(trifluoromethyl)-1H-pyrazole-5-carboxamide]
read-out: Ki
  Ki: 0.1 to 50 nM

## NCc1cccc(-n2nc(C(F)(F)F)cc2C(=O)Nc2cccc(C(NCC3CC3)c3ccc4ccccc4c3)c2)c1 (centres unmarked) [128g, 1-(3-(aminomethyl)phenyl)-N-(3-((cyclopropylmethylamino)(naphthalen-2-yl)methyl)phenyl)-3-(trifluoromethyl)-1H-pyrazole-5-carboxamide]
read-out: Ki
  Ki: 0.1 to 50 nM

## NCc1cccc(-n2nc(C(F)(F)F)cc2C(=O)Nc2cccc(C(NCC3CC3)c3cccc4ccccc34)c2)c1 (centres unmarked) [129f, 1-(3-(aminomethyl)phenyl)-N-(3-((cyclopropylmethylamino)(naphthalen-1-yl)methyl)phenyl)-3-(trifluoromethyl)-1H-pyrazole-5-carboxamide]
read-out: Ki
  Ki: 0.1 to 50 nM

## NCc1cccc(-n2nc(C(F)(F)F)cc2C(=O)Nc2cc(C(NCC3CC3)c3cccc(N)c3)ccc2F)c1 (centres unmarked) [131b, 1-(3-(aminomethyl)phenyl)-N-(5-((3-aminophenyl)(cyclopropylmethylamino)methyl)-2-fluorophenyl)-3-(trifluoromethyl)-1H-pyrazole-5-carboxamide]
read-out: Ki
  Ki: 0.1 to 50 nM

## NCc1cccc(-n2nc(C(F)(F)F)cc2C(=O)Nc2cc(C(NCC3CC3)c3ccncc3)ccc2F)c1 (centres unmarked) [132f, 1-(3-(aminomethyl)phenyl)-N-(5-(((cyclopropylmethyl)amino)(pyridin-4-yl)methyl)-2-fluorophenyl)-3-(trifluoromethyl)-1H-pyrazole-5-carboxamide]
read-out: Ki
  Ki: 0.1 to 50 nM

## NCc1cccc(-n2nc(C(F)(F)F)cc2C(=O)Nc2cccc(C(NCC3CC3)c3ccc(-c4ccccc4)cc3)c2)c1 (centres unmarked) [133g, 1-(3-(aminomethyl)phenyl)-N-(3-(biphenyl-4-yl(cyclopropylmethylamino)methyl)phenyl)-3-(trifluoromethyl)-1H-pyrazole-5-carboxamide]
read-out: Ki
  Ki: 0.1 to 50 nM

## COc1ccc2cc(C(NCC3CC3)c3cccc(NC(=O)c4cc(C(F)(F)F)nn4-c4cccc(CN)c4)c3)ccc2c1 (centres unmarked) [134f, 1-(3-(aminomethyl)phenyl)-N-(3-((cyclopropylmethylamino)(6-methoxynaphthalen-2-yl)methyl)phenyl)-3-(trifluoromethyl)-1H-pyrazole-5-carboxamide]
read-out: Ki
  Ki: 0.1 to 50 nM

## NCc1cccc(-n2nc(C(F)(F)F)cc2C(=O)Nc2cccc(C(NCC3CC3)c3ccc(O)cc3)c2)c1 (centres unmarked) [135c, 1-(3-(aminomethyl)phenyl)-N-(3-(((cyclopropylmethyl)amino)(4-hydroxyphenyl)methyl)phenyl)-3-(trifluoromethyl)-1H-pyrazole-5-carboxamide]
read-out: Ki
  Ki: 0.1 to 50 nM

## NCc1cccc(-n2nc(C(F)(F)F)cc2C(=O)Nc2cccc(C(NCC3CC3)c3cccc(O)c3)c2)c1 (centres unmarked) [137a, 1-(3-(Aminomethyl)phenyl)-N-(3-((cyclopropylmethylamino)(3-hydroxyphenyl)methyl)phenyl)-3-(trifluoromethyl)-1H-pyrazole-5-carboxamide]
read-out: Ki
  Ki: 0.1 to 50 nM

## CC(=O)Nc1ccc(C(NCC2CC2)c2cccc(NC(=O)c3cc(C(F)(F)F)nn3-c3cccc(CN)c3)c2)cc1 (centres unmarked) [138f, N-(3-((4-acetamidophenyl)(cyclopropylmethylamino)methyl)phenyl)-1-(3-(aminomethyl)phenyl)-3-(trifluoromethyl)-1H-pyrazole-5-carboxamide]
read-out: Ki
  Ki: 0.1 to 50 nM

## Cc1cccc(C(NCC2CC2)c2ccc(F)c(NC(=O)c3cc(C(F)(F)F)nn3-c3cccc(CN)c3)c2)c1 (centres unmarked) [140e, 1-(3-(aminomethyl)phenyl)-N-(5-(((cyclopropylmethyl)amino)(m-tolyl)methyl)-2-fluorophenyl)-3-(trifluoromethyl)-1H-pyrazole-5-carboxamide]
read-out: Ki
  Ki: 0.1 to 50 nM

## COc1cccc(C(NCC2CC2)c2ccc(F)c(NC(=O)c3cc(C(F)(F)F)nn3-c3cccc(CN)c3)c2)c1 (centres unmarked) [141e, 1-(3-(aminomethyl)phenyl)-N-(5-(((cyclopropylmethyl)amino)(3-methoxyphenyl)methyl)-2-fluorophenyl)-3-(trifluoromethyl)-1H-pyrazole-5-carboxamide]
read-out: Ki
  Ki: 0.1 to 50 nM

## Cc1cc(C(=O)Nc2cccc(C(NCC3CC3)c3ccccc3)c2)n(-c2cccc(CN)c2)n1 (centres unmarked) [143l, 1-(3-(aminomethyl)phenyl)-N-(3-((cyclopropylmethylamino)(phenyl)methyl)phenyl)-3-methyl-1H-pyrazole-5-carboxamide]
read-out: Ki
  Ki: 0.1 to 50 nM

## CC(C)NC(c1ccccc1)c1cccc(NC(=O)c2cc(C(F)(F)F)nn2-c2cccc(CN)c2)c1 (centres unmarked) [144d, 1-(3-(Aminomethyl)phenyl)-N-(3-((isopropylamino)(phenyl)methyl)phenyl)-3-(trifluoromethyl)-1H-pyrazole-5-carboxamide]
read-out: Ki
  Ki: 0.1 to 50 nM

## NCc1cccc(-n2nc(C(F)(F)F)cc2C(=O)Nc2cccc(C(NCC3CC3)c3cc(O)ccc3O)c2)c1 (centres unmarked) [146g, 1-(3-(aminomethyl)phenyl)-N-(3-((cyclopropylmethylamino)(2,5-dihydroxyphenyl)methyl)phenyl)-3-(trifluoromethyl)-1H-pyrazole-5-carboxamide]
read-out: Ki
  Ki: 0.1 to 50 nM

## CC(=O)Nc1ccc(C(OCC2CC2)c2cccc(NC(=O)c3cc(C(F)(F)F)nn3-c3cccc(CN)c3)c2)cc1 (centres unmarked) [147e, N-(3-((4-acetamidophenyl)(cyclopropylmethoxy)methyl)phenyl)-1-(3-(aminomethyl)phenyl)-3-(trifluoromethyl)-1H-pyrazole-5-carboxamide]
read-out: Ki
  Ki: 0.1 to 50 nM

## NCc1cccc(-n2nc(C(F)(F)F)cc2C(=O)Nc2cccc(C(OCC3CC3)c3ccc(O)cc3)c2)c1 (centres unmarked) [149b, 1-(3-(aminomethyl)phenyl)-N-(3-((cyclopropylmethoxy)(4-hydroxyphenyl)methyl)phenyl)-3-(trifluoromethyl)-1H-pyrazole-5-carboxamide]
read-out: Ki
  Ki: 0.1 to 50 nM

## NCc1cccc(-n2nc(C(F)(F)F)cc2C(=O)Nc2cccc(C(NCC3CC3)c3cccc(O)c3O)c2)c1 (centres unmarked) [150f, 1-(3-(aminomethyl)phenyl)-N-(3-((cyclopropylmethylamino)(2,3-dihydroxyphenyl)methyl)phenyl)-3-(trifluoromethyl)-1H-pyrazole-5-carboxamide]
read-out: Ki
  Ki: 0.1 to 50 nM

## COc1cccc(C(NCC2CC2)c2cccc(NC(=O)c3cc(C(F)(F)F)nn3-c3cccc(CN)c3)c2)c1O (centres unmarked) [151g, 1-(3-(Aminomethyl)phenyl)-N-(3-((cyclopropylmethylamino)(2-hydroxy-3-methoxyphenyl)methyl)phenyl)-3-(trifluoromethyl)-1H-pyrazole-5-carboxamide]
read-out: Ki
  Ki: 0.1 to 50 nM

## N#Cc1cccc(C(NCC2CC2)c2cccc(NC(=O)c3cc(C(F)(F)F)nn3-c3cccc(CN)c3)c2)c1 (centres unmarked) [152d, 1-(3-(aminomethyl)phenyl)-N-(3-((3-cyanophenyl)(cyclopropylmethylamino)methyl)phenyl)-3-(trifluoromethyl)-1H-pyrazole-5-carboxamide]
read-out: Ki
  Ki: 0.1 to 50 nM

## NCc1cccc(-n2nc(C(F)(F)F)cc2C(=O)Nc2cc(C(NCC3CC3)c3ccc(C(N)=O)cc3)ccc2F)c1 (centres unmarked) [153b, 1-(3-(aminomethyl)phenyl)-N-(5-((4-carbamoylphenyl)(cyclopropylmethyl-amino)methyl)-2-fluorophenyl)-3-(trifluoromethyl)-1H-pyrazole-5-carboxamide]
read-out: Ki
  Ki: 0.1 to 50 nM

## COc1ccc(C(NCC2CC2)c2cccc(NC(=O)c3cc(C(F)(F)F)nn3-c3cccc(CN)c3)c2)c2ccccc12 (centres unmarked) [154e, 1-(3-(aminomethyl)phenyl)-N-(3-((cyclopropylmethylamino)(4-methoxynaphthalen-1-yl)methyl)phenyl)-3-(trifluoromethyl)-1H-pyrazole-5-carboxamide]
read-out: Ki
  Ki: 0.1 to 50 nM

## NCc1cccc(C(NCC2CC2)c2ccc(F)c(NC(=O)c3cc(C(F)(F)F)nn3-c3cccc(CN)c3)c2)c1 (centres unmarked) [155c, 1-(3-(aminomethyl)phenyl)-N-(5-((3-(aminomethyl)phenyl)(cyclopropylmethylamino)methyl)-2-fluorophenyl)-3-(trifluoromethyl)-1H-pyrazole-5-carboxamide]
read-out: Ki
  Ki: 0.1 to 50 nM

## COC(CCC1CC1)(c1cccnc1)c1cccc(NC(=O)c2cc(C(F)(F)F)nn2-c2cccc(CN)c2)c1 (centres unmarked) [156c, 1-(3-(aminomethyl)phenyl)-N-(3-(3-cyclopropyl-1-methoxy-1-(pyridin-3-yl)propyl)phenyl)-3-(trifluoromethyl)-1H-pyrazole-5-carboxamide]
read-out: Ki
  Ki: 0.1 to 50 nM

## CN1CCc2c(ccc(NC(=O)c3cc(C(F)(F)F)nn3-c3cccc(CN)c3)c2F)C1 [164e, 1-(3-(aminomethyl)phenyl)-N-(5-fluoro-2-methyl-1,2,3,4-tetrahydroisoquinolin-6-yl)-3-(trifluoromethyl)-1H-pyrazole-5-carboxamide]
read-out: Ki
  Ki: 0.1 to 50 nM
